Results: ChEMBL document CHEMBL5723586, “Data for DCP probe BI-1915” (2024)
Calls of active or inactive are those of the source.

Assays:
[1] = molecular target: Muscarinic acetylcholine receptor M1 (Homo sapiens) (UniProt P11229); assay: M1 Eurofins-Cerep binding assay; design: ligand concentration 2 nM; conditions: Compound concentration 10.0 uM
[2] = molecular target: Endothelin-1 receptor (Homo sapiens) (UniProt P25101); assay: ETA Eurofins-Cerep binding assay; design: ligand concentration 0.03 nM; conditions: Compound concentration 10.0 uM
[3] = molecular target: Beta-2 adrenergic receptor (Homo sapiens) (UniProt P07550); assay: beta 2 Eurofins-Cerep binding assay; conditions: Compound concentration 10.0 uM
[4] = molecular target: Mu-type opioid receptor (Homo sapiens) (UniProt P35372); assay: mu (MOP) Eurofins-Cerep binding assay; design: ligand concentration 0.5 nM; conditions: Compound concentration 10.0 uM
[5] = molecular target: Sodium-dependent noradrenaline transporter (Homo sapiens) (UniProt P23975); assay: norepinephrine transporter Eurofins-Cerep binding assay; design: ligand concentration 1 nM; conditions: Compound concentration 10.0 uM
[6] = molecular target: Prostaglandin G/H synthase 2 (Homo sapiens) (UniProt P35354); assay: Inhibitor of COX-2 in the Eurofins Cerep SafetyScreen44 (BI) by Fluorimetry (Cerep_4186); conditions: Compound concentration 10.0 uM
hERG (KCNH2) = hERG (KCNH2) (Homo sapiens, UniProt Q12809); assay: Inhibitor of HERG_DOFETILIDE in the Eurofins Cerep SafetyScreen44 (BI) by Scintillation counting (Cerep_4094); design: scale not given: the % may be the effect or the level left; conditions: probe [3H] Dofetilide, compound concentration 10 uM, read-out: % Ctrl
[7] = molecular target: Delta-type opioid receptor (Homo sapiens) (UniProt P41143); assay: delta (DOP) Eurofins-Cerep binding assay; design: ligand concentration 0.5 nM; conditions: Compound concentration 10.0 uM
[8] = molecular target: Sodium-dependent serotonin transporter (Homo sapiens) (UniProt P31645); assay: 5-HT transporter Eurofins-Cerep binding assay; design: ligand concentration 2 nM; conditions: Compound concentration 10.0 uM
[9] = molecular target: Muscarinic acetylcholine receptor M3 (Homo sapiens) (UniProt P20309); assay: M3 Eurofins-Cerep binding assay; design: ligand concentration 0.2 nM; conditions: Compound concentration 10.0 uM
[10] = molecular target: Androgen receptor (Homo sapiens) (UniProt P10275); conditions: Compound concentration 10.0 uM
Description: Activity against ANDROGEN/H in the Eurofins Cerep SafetyScreen44 (BI) by Radioactive Assay (Cerep_933)

[11] = molecular target: 5-hydroxytryptamine receptor 1B (Homo sapiens) (UniProt P28222); assay: 5-HT1B Eurofins-Cerep binding assay; design: ligand concentration 1 nM; conditions: Compound concentration 10.0 uM
5-hydroxytryptamine receptor 1B (Homo sapiens), sequence (P28222 whole entry): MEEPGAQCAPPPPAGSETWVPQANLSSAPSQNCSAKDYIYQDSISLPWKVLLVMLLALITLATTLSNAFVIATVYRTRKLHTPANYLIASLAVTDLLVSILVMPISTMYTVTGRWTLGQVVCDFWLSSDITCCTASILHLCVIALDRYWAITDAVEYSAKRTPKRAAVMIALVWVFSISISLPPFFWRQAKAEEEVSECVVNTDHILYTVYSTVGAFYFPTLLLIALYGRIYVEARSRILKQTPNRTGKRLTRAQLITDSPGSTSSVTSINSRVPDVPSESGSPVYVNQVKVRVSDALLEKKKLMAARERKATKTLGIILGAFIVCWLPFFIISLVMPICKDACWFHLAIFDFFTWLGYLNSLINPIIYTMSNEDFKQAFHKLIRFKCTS

[12] = molecular target: MAO-A (amine oxidase [flavin-containing] A) (Homo sapiens, UniProt P21397); assay: Agonist activity in the Eurofins Cerep SafetyScreen44 (BI) against MAO-A_ANTAG by Scintillation counting (Cerep_443); design: scale not given: the % may be the effect or the level left; conditions: rat; compound concentration 10 uM; target entry is the homologue from another species; read-out: % Ctrl
MAO-A (amine oxidase [flavin-containing] A), sequence (P21397 whole entry): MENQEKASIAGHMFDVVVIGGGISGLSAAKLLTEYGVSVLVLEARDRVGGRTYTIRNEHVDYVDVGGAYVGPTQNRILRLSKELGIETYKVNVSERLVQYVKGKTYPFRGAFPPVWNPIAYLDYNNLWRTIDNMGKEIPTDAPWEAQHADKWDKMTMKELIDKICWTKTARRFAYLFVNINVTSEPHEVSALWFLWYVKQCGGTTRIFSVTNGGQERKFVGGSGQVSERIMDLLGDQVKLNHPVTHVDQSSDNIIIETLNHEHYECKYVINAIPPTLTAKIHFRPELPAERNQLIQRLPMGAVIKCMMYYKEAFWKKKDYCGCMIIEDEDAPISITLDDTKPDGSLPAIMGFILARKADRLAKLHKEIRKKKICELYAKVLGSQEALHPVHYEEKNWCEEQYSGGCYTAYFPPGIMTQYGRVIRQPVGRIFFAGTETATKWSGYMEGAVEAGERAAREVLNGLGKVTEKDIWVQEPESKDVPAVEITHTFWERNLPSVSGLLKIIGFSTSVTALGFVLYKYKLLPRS

[13] = molecular target: D(2) dopamine receptor (Homo sapiens) (UniProt P14416); assay: Agonist activity in the Eurofins Cerep SafetyScreen44 (BI) against D2SH_AGON by Scintillation counting (Cerep_1322); conditions: Compound concentration 10.0 uM
[14] = molecular target: Angiotensin-converting enzyme (Homo sapiens) (UniProt P12821); assay: Activity against ACE(HU_AMTCH400) in the Eurofins Cerep SafetyScreen44 (BI) by Photometry (Cerep_3441); conditions: Compound concentration 10.0 uM
[15] = molecular target: Prostaglandin G/H synthase 1 (Homo sapiens) (UniProt P23219); assay: Inhibitor of COX-1 in the Eurofins Cerep SafetyScreen44 (BI) by Fluorimetry (Cerep_4173); conditions: Compound concentration 10.0 uM
[16] = molecular target: Beta-1 adrenergic receptor (Homo sapiens) (UniProt P08588); assay: beta 1 Eurofins-Cerep binding assay; design: ligand concentration 0.3 nM; conditions: Compound concentration 10.0 uM
[17] = molecular target: Cannabinoid receptor 2 (Homo sapiens) (UniProt P34972); assay: Activity against CB2/PERIPH/H in the Eurofins Cerep SafetyScreen44 (BI) by Radioactive Assay (Cerep_37); conditions: Compound concentration 10.0 uM
[18] = molecular target: 5-hydroxytryptamine receptor 2A (Homo sapiens) (UniProt P28223); assay: Agonist activity in the Eurofins Cerep SafetyScreen44 (BI) against 5HT2AH_AGON by Scintillation counting (Cerep_471); conditions: Compound concentration 10.0 uM
5-hydroxytryptamine receptor 2A (Homo sapiens), sequence (P28223 whole entry): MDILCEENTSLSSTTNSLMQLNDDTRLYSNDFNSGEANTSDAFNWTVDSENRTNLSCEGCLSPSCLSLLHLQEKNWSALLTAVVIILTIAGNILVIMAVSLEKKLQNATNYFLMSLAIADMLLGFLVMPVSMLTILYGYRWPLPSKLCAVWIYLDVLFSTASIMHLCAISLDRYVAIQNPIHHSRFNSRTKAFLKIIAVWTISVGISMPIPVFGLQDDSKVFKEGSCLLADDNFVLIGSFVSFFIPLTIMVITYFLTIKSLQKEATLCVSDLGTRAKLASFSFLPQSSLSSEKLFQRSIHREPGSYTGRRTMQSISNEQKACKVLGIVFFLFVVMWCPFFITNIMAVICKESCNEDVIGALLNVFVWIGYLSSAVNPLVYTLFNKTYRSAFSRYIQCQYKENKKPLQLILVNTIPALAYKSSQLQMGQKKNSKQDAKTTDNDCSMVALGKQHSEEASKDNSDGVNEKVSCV

[19] = molecular target: 5-hydroxytryptamine receptor 1A (Homo sapiens) (UniProt P08908); assay: 5-HT1A Eurofins-Cerep binding assay; design: ligand concentration 0.5 nM; conditions: Compound concentration 10.0 uM
[20] = molecular target: 3',5'-cyclic-AMP phosphodiesterase 4D (Homo sapiens) (UniProt Q08499); assay: Inhibitor of PDE4D2 in the Eurofins Cerep SafetyScreen44 (BI) by Scintillation counting (Cerep_4077); conditions: Compound concentration 10.0 uM
[21] = molecular target: 5-hydroxytryptamine receptor 2B (Homo sapiens) (UniProt P41595); assay: 5-HT2B Eurofins-Cerep binding assay; conditions: Compound concentration 10.0 uM
5-hydroxytryptamine receptor 2B (Homo sapiens), sequence (P41595 whole entry): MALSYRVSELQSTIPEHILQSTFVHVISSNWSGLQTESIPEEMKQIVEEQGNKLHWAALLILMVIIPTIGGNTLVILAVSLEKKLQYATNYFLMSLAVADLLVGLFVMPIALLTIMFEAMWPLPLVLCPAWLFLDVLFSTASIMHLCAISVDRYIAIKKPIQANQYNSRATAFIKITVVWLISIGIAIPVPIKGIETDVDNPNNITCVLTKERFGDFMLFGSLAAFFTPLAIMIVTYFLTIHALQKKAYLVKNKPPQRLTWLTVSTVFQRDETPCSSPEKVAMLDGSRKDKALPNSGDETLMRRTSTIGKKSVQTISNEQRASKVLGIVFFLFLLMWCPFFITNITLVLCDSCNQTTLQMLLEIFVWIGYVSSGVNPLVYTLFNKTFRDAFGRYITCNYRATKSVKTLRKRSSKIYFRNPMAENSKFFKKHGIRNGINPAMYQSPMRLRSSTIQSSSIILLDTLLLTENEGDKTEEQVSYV

[22] = molecular target: L-type calcium channel (dihydropyridine site), Cav1.2 alpha-1C (Rattus norvegicus, UniProt P22002); assay: Inhibitor of CA+/DHPSI/R in the Eurofins Cerep SafetyScreen44 (BI) by Radioactive Assay (Cerep_161); format: protein assay; design: scale not given: the % may be the effect or the level left; conditions: rat brain, probe [3H](+)PN200-110, compound concentration 10 uM, read-out: % Ctrl
[23] = molecular target: D(1A) dopamine receptor (Homo sapiens) (UniProt P21728); assay: D1 Eurofins-Cerep binding assay; design: ligand concentration 0.3 nM; conditions: Compound concentration 10.0 uM
[24] = molecular target: Vasopressin V1a receptor (Homo sapiens) (UniProt P37288); assay: V1a Eurofins-Cerep binding assay; design: ligand concentration 0.3 nM; conditions: Compound concentration 10.0 uM
[25] = molecular target: Glucocorticoid receptor (Homo sapiens) (UniProt P04150); assay: GR Eurofins-Cerep binding assay; conditions: Compound concentration 10.0 uM
Glucocorticoid receptor (Homo sapiens), sequence (P04150 whole entry): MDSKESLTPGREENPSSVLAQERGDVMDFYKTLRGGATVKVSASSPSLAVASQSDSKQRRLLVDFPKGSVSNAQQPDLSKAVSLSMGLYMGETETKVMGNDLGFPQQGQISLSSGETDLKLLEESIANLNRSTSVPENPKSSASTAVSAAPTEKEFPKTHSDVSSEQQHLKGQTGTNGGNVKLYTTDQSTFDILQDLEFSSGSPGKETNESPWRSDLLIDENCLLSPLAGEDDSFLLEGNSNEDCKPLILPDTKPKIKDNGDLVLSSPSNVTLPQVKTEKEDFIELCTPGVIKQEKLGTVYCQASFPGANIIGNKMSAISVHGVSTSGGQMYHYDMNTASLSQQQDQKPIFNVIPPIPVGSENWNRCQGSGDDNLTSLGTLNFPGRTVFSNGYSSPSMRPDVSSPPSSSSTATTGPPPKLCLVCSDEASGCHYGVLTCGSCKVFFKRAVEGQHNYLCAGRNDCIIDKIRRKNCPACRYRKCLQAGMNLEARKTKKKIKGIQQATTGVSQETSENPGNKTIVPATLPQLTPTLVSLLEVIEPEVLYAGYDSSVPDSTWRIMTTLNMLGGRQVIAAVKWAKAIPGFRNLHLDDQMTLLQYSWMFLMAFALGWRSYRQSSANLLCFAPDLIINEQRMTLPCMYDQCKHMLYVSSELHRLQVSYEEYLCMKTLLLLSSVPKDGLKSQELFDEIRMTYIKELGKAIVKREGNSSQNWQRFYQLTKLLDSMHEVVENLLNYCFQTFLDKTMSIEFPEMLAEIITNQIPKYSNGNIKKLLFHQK

[26] = molecular target: Tyrosine-protein kinase Lck (Homo sapiens) (UniProt P06239); assay: Inhibitor of LCK_CE in the Eurofins Cerep SafetyScreen44 (BI) by lanthanide chelation excitation (Cerep_2906); conditions: Compound concentration 10.0 uM
Tyrosine-protein kinase Lck (Homo sapiens), sequence (P06239 2-509 limits assumed): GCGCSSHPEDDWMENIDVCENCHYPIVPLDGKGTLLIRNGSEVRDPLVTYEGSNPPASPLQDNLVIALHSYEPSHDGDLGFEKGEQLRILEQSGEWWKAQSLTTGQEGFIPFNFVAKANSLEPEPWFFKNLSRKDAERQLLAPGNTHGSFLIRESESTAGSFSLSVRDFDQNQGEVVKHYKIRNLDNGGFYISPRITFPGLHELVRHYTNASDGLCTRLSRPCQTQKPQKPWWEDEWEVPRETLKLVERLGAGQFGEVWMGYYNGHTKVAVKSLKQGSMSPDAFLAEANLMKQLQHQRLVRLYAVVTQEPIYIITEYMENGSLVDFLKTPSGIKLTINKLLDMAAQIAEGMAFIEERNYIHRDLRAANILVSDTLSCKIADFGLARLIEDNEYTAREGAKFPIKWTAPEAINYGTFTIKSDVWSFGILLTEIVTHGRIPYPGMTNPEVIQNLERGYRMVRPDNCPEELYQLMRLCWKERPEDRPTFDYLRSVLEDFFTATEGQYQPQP

[27] = molecular target: Adenosine receptor A2a (Homo sapiens) (UniProt P29274); assay: A2A Eurofins-Cerep binding assay; design: ligand concentration 6 nM; conditions: Compound concentration 10.0 uM
Adenosine receptor A2a (Homo sapiens), sequence (P29274 whole entry): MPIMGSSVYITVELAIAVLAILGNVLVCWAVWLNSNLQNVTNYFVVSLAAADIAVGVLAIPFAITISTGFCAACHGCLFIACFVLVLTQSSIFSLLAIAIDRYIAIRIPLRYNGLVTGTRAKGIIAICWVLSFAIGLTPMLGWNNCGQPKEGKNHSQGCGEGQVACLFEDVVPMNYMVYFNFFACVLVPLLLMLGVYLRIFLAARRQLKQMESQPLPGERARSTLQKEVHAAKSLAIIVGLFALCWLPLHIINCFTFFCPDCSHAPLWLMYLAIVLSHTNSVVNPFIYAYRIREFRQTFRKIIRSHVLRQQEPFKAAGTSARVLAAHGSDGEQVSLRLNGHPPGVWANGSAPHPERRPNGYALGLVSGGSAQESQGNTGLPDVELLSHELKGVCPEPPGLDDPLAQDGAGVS

[28] = molecular target: Cannabinoid receptor 1 (Homo sapiens) (UniProt P21554); assay: CB1 Eurofins-Cerep binding assay; conditions: Compound concentration 10.0 uM
[29] = molecular target: Muscarinic acetylcholine receptor M2 (Homo sapiens) (UniProt P08172); assay: M2 Eurofins-Cerep binding assay; design: ligand concentration 2 nM; conditions: Compound concentration 10.0 uM
Muscarinic acetylcholine receptor M2 (Homo sapiens), sequence (P08172 whole entry): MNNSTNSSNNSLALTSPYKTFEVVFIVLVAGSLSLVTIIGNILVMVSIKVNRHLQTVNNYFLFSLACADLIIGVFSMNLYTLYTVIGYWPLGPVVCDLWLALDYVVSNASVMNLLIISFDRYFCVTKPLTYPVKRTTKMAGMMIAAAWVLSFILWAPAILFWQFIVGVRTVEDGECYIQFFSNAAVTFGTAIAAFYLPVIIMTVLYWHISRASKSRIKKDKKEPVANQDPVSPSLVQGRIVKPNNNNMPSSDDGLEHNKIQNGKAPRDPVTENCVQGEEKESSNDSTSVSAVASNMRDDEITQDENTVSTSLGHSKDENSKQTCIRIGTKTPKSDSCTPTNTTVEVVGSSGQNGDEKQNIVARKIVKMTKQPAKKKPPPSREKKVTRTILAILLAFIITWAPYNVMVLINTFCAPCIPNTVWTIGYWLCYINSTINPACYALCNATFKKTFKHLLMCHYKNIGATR

[30] = molecular target: Cholecystokinin receptor type A (Homo sapiens) (UniProt P32238); assay: CCK1 (CCKA) Eurofins-Cerep binding assay; design: ligand concentration 0.08 nM; conditions: Compound concentration 10.0 uM
Cholecystokinin receptor type A (Homo sapiens), sequence (P32238 whole entry): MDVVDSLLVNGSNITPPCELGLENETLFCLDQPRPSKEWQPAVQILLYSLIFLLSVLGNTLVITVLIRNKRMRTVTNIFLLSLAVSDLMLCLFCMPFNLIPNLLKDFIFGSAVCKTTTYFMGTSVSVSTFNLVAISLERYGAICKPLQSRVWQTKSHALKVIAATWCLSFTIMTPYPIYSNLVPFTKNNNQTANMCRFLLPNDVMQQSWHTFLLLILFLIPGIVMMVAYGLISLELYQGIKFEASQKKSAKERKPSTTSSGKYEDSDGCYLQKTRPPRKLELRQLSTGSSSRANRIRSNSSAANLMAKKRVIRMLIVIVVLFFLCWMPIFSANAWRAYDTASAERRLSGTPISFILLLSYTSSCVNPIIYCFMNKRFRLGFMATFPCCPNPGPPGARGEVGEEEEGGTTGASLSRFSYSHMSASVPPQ

[31] = molecular target: Histamine H2 receptor (Homo sapiens) (UniProt P25021); assay: H2 Eurofins-Cerep binding assay; design: ligand concentration 0.075 nM; conditions: Compound concentration 10.0 uM
[32] = molecular target: Sodium-dependent dopamine transporter (Homo sapiens) (UniProt Q01959); assay: dopamine transporter Eurofins-Cerep binding assay; conditions: Compound concentration 10.0 uM
[33] = molecular target: Kappa-type opioid receptor (Homo sapiens) (UniProt P41145); assay: kappa (KOP) Eurofins-Cerep binding assay; conditions: Compound concentration 10.0 uM
[34] = molecular target: 5-hydroxytryptamine receptor 3A (Homo sapiens) (UniProt P46098); assay: 5-HT3 Eurofins-Cerep binding assay; design: ligand concentration 0.5 nM; conditions: Compound concentration 10.0 uM
Rattus norvegicus [35] = species: Rattus norvegicus; assay: Activity against BZD/CENTR/R in the Eurofins Cerep SafetyScreen44 (BI) by Radioactive Assay (Cerep_28); format: protein-complex assay; conditions: Compound concentration 10.0 uM
Homo sapiens = species: Homo sapiens; assay: Agonist activity in the Eurofins Cerep SafetyScreen44 (BI) against N_NEURO_A4B2 by Radioligand Binding (Cerep_3029); format: protein-complex assay; conditions: Compound concentration 10.0 uM
Rattus norvegicus [36] = species: Rattus norvegicus; assay: KV channel Eurofins-Cerep binding assay; design: ligand concentration 0.01 nM; conditions: Compound concentration 10.0 uM
[37] = molecular target: Glutamate NMDA receptor (Rattus norvegicus) (UniProt P35439+Q00959+Q00960+Q00961+Q62645+Q8VHN2+Q9R1M7); assay: Inhibitor of NMDA/R in the Eurofins Cerep SafetyScreen44 (BI) by Radioactive Assay (Cerep_66); format: protein-complex assay; conditions: Compound concentration 10.0 uM
[38] = molecular target: Histamine H1 receptor (Homo sapiens) (UniProt P35367); assay: H1 Eurofins-Cerep binding assay; design: ligand concentration 1 nM; conditions: Compound concentration 10.0 uM
Histamine H1 receptor (Homo sapiens), sequence (P35367 whole entry): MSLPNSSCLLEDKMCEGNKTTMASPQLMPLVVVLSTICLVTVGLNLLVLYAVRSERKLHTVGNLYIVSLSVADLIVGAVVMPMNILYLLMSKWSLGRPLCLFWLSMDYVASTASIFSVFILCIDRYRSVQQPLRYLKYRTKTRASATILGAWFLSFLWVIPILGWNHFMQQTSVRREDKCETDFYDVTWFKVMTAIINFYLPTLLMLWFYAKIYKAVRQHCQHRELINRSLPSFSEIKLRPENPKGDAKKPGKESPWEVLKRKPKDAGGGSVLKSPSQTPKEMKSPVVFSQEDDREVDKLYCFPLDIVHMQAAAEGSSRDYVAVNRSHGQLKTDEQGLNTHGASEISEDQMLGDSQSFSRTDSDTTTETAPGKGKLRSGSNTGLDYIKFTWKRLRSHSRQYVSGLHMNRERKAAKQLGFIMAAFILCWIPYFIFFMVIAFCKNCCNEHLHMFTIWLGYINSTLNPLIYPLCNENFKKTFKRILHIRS

[39] = molecular target: Alpha-1A adrenergic receptor (Homo sapiens) (UniProt P35348); assay: Agonist activity in the Eurofins Cerep SafetyScreen44 (BI) against ALPHA1AH_ANTAG by Scintillation counting (Cerep_2338); conditions: Compound concentration 10.0 uM
[40] = molecular target: Alpha-2A adrenergic receptor (Homo sapiens) (UniProt P08913); assay: Inhibitor of ALPHA2A/HU in the Eurofins Cerep SafetyScreen44 (BI) by Radioactive Assay (Cerep_13); conditions: Compound concentration 10.0 uM
[41] = molecular target: cGMP-inhibited 3',5'-cyclic phosphodiesterase 3A (Homo sapiens) (UniProt Q14432); assay: Inhibitor of PDE3A in the Eurofins Cerep SafetyScreen44 (BI) by HTRF-homogeneous time resolved fluoresce (Cerep_4072); conditions: Compound concentration 10.0 uM
Cathepsin K = Cathepsin K (Homo sapiens, UniProt P43235); assay: Luminescent based enzymatic assay (CTSK)
Procathepsin L = Procathepsin L (Homo sapiens, UniProt P07711); assay: Luminescent based enzymatic assay (CTSL)
Cathepsin B = Cathepsin B (Homo sapiens, UniProt P07858); assay: Luminescent based enzymatic assay (CTSB)
Cathepsin S = Cathepsin S (Homo sapiens, UniProt P25774); assay: Scintillation proximity assay (CTSS)

CN1CCC(C#N)(NC(=O)[C@@H](NC(=O)N2CCOCC2)C(C)(C)C)CC1
inactive: residual activity [1] 108% | residual activity [2] 112% | residual activity [3] 92% | residual activity [4] 96% | residual activity [5] 120% | residual activity [6] 90% | residual activity [7] 106% | residual activity [8] 106% | residual activity [9] 112% | residual activity [10] 110% | residual activity [11] 61% | residual activity [13] 107% | residual activity [14] 105% | residual activity [15] 108% | residual activity [16] 97% | residual activity [17] 109% | residual activity [18] 123% | residual activity [19] 97% | residual activity [20] 105% | residual activity [21] 117% | residual activity [23] 105% | residual activity [24] 94% | residual activity [25] 105% | residual activity [26] 99% | residual activity [27] 87% | residual activity [28] 112% | residual activity [29] 125% | residual activity [30] 96% | residual activity [31] 92% | residual activity [32] 105% | residual activity [33] 96% | residual activity [34] 97% | residual activity (Rattus norvegicus [35]) 111% | residual activity (Homo sapiens) 98% | residual activity (Rattus norvegicus [36]) 110% | residual activity [37] 92% | residual activity [38] 106% | residual activity [39] 104% | residual activity [40] 80% | residual activity [41] 88%
115% (not active): activity at 10 µM [22]
98% (not active): activity at 10 µM (hERG (KCNH2))
105% (not active): activity at 10 µM [12]

CCC(C)(C)CC[C@H](NC(=O)N1CCOCC1)C(=O)NC1(C#N)CCN(C)CC1
106% (not active): activity at 10 µM [22]
100% (not active): activity at 10 µM (hERG (KCNH2))
active: Kd (Cathepsin S) 0.031 µM
> 10 µM (not active): IC50 (Cathepsin K) | IC50 (Cathepsin B)
108% (not active): activity at 10 µM [12]
inactive: residual activity [1] 105% | residual activity [2] 106% | residual activity [3] 103% | residual activity [4] 81% | residual activity [5] 103% | residual activity [6] 104% | residual activity [7] 92.5% | residual activity [8] 106% | residual activity [9] 106% | residual activity [10] 107% | residual activity [11] 92.5% | residual activity [13] 106% | residual activity [14] 98.5% | residual activity [15] 112% | residual activity [16] 101% | residual activity [17] 106% | residual activity [18] 104% | residual activity [19] 104% | residual activity [20] 100% | residual activity [21] 118% | residual activity [23] 94% | residual activity [24] 92.5% | residual activity [25] 102% | residual activity [26] 96.5% | residual activity [27] 102% | residual activity [28] 116% | residual activity [29] 106% | residual activity [30] 88% | residual activity [31] 106% | residual activity [32] 98.5% | residual activity [33] 84.5% | residual activity [34] 100% | residual activity (Rattus norvegicus [35]) 114% | residual activity (Homo sapiens) 114% | residual activity (Rattus norvegicus [36]) 109% | residual activity [37] 106% | residual activity [38] 101% | residual activity [39] 110% | residual activity [40] 97% | residual activity [41] 103%
> 30 µM (not active): IC50 (Procathepsin L)
